Laboratory results published in patent US20240124454A1, “TRICYCLIC COMPOUND AND USE THEREOF” (NANJING ZAIMING PHARMACEUTICAL CO., LTD., priority 2020, published 2024).
Like-named read-outs stand apart in the source and are kept apart here.

Biological target: MAT2A (Homo sapiens (Human), UniProt P31153)
Experiment: MAT2A biochemical test (inorganic phosphate colorimetric, PiColorLock)
Details: read-out: MAT2A inhibitory Activity IC50
Excerpt: Test Example 1. Biochemical Test
The brief introduction of the test principle: L-methionine and ATP can be converted into SAM, inorganic phosphate, and inorganic diphosphate under the catalysis of MAT2A enzymes. The content of inorganic phosphate in the sample can be quantitatively determined by adding a developer such as ammonium molybdate or the like to the enzymatic reaction mixture, thereby reflecting the enzymatic activity of MAT2A.
Reference: The experiment referred to the method disclosed in patent WO2018045071.
Material: MAT2A screening kits were purchased from BPS bioscience (U.S.); 384-well plates were purchased from Corning Company (U.S.). • 1. MAT2A protein (Pharmaron Beijing Co., Ltd.); • 2. L-methionine (Sigma #M9625-5G) • 3. ATP (Sigma #A7699-1G) • 4. KCl (Sigma #60142-500ML-F) • 5. Tris (Sigma #T2663-1L) • 6. MgCl2 (Sigma #M1028) • 7. EDTA (Invitrogen #AM9260G) • 8. BSA (Sangon Biotech #A500023-0100) • 9. PiColorLock (abcam #ab270004)
Detection method: In the experimental group, the test compound was dissolved in DMSO, diluted to a final concentration of 10 μM using Echo, and diluted 3-fold. 80 nL of the dilution was transferred to a 384-well plate.
The experimental buffer (50 mM Tris, 50 mM KCl, 15 mM MgCl2, 100 μM EDTA, 0.005% BSA) was prepared. The MAT2A protein was diluted with the experimental buffer (at final concentration of […]). 40 μL of 2×MAT2A solution was added to the 384-well plate. The plate was centrifuged at 1000 rpm for 1 min and incubated at room temperature for 120 min.
L-methionine and ATP (the final concentration of L-methionine was […] and the final concentration of ATP was 400 μM) were diluted with the experimental buffer. 40 μL of 2×L-methionine and ATP solution was added to initiate the reaction. The plate was centrifuged at 1000 rpm for 1 min and incubated at room temperature for 90 min.
The PiColorLock™ reaction catalyst was mixed with the PiColorLock™ buffer at a ratio of 1:100 according to the instructions. 20 μL was added to each well, and the plate was shaken for 30 s. 8 μL stabilizing reagent was added, and the plate was shaken for 30 s. The signal values were measured after 30 min of incubation at room temperature.
A negative control group and a positive control group were respectively used as Bottom and Top. The negative control group was not added with MAT2A protein, and other operations were consistent with those of the experimental group. The positive control group was not added with the test compound, only added with DMSO in the same volume, and other operations were consistent with those of the experimental group.
The % Compound inhibition was calculated and fitted to give the IC50 of the compound.
% Compound inhibition=1-100%×(Signal−Bottom)/(Top−Bottom).
Signal referred to the signal value of the experimental group, Bottom referred to the average signal value of the negative control group, and Top referred to the average signal value of the positive control group.
Under the condition of this experiment, the inhibitory effect of the test compound on MAT2A can be expressed as the IC50 of the inhibition on the phosphate production level during the enzymatic reaction.

Chain of MAT2A (P31153 whole entry): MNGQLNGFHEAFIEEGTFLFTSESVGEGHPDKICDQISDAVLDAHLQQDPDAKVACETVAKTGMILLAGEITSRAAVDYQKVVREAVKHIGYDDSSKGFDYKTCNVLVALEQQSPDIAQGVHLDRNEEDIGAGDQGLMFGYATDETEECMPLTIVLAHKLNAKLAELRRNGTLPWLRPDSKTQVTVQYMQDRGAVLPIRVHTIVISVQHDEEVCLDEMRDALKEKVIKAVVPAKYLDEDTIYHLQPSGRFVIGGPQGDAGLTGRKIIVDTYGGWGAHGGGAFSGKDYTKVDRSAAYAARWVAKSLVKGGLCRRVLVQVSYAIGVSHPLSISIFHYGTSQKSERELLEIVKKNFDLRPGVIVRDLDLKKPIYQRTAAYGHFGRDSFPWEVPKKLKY

| Structure (SMILES) | IC50 (class symbols) [nM] | IC50 (numeric values) [nM] |
| --- | --- | --- |
| O=c1[nH]c2c(=O)n(-c3ccccc3Cl)c3nc(C(F)(F)F)ccc3c2[nH]1 [Compound 4, 5-(2-chlorophenyl)-7-(trifluoromethyl)-3,5-dihydro-1H-imidazo[4,5-c][1,8]naphthyridine-2,4-dione] | < 100 | 69.6 |
| O=c1c2cn[nH]c2c2ccc(C(F)(F)F)nc2n1-c1ccccc1Cl [Compound 7, 5-(2-chlorophenyl)-7-(trifluoromethyl)-1,5-dihydro-4H-pyrazolo[4,3-c][1,8]naphthyridin-4-one] | 100 to 500 | 128 |
| O=c1c2ncoc2c2ccc(C(F)(F)F)nc2n1-c1ccccc1Cl [Compound 8, 5-(2-chlorophenyl)-7-(trifluoromethyl)oxazolo[4,5-c][1,8]naphthyridin-4(5H)-one] | < 100 | 64.4 |
| CCOc1ccc2c3[nH]c(=O)[nH]c3c(=O)n(-c3ccc(OC(F)F)cc3)c2n1 [Compound 10, 5-(4-(difluoromethoxy)phenyl)-7-ethoxy-3,5-dihydro-1H-imidazo[4,5-c][1,8]naphthyridine-2,4-dione] | < 100 | 33 |
| CCOc1ccc2c3[nH]c(OC)nc3c(=O)n(-c3ccc(OC(F)F)cc3)c2n1 [Compound 11, 5-(4-(difluoromethoxy)phenyl)-7-ethoxy-2-methoxy-1,5-dihydro-4H-imidazo[4,5-c][1,8]naphthyridin-4-one] | < 100 | 56.6 |
| Cn1cc2c(n1)c(=O)n(-c1ccc(OC(F)F)cc1)c1nc(C(F)(F)F)ccc21 [Compound 12, 5-(4-(difluoromethoxy)phenyl)-2-methyl-7-(trifluoromethyl)-2,5-dihydro-4H-pyrazolo[3,4-c][1,8]naphthyridin-4-one] | 100 to 500 | 102 |
| CCOc1ccc2c3cn(C)nc3c(=O)n(-c3ccc(OC(F)F)cc3)c2n1 [Compound 13, 5-(4-(difluoromethoxy)phenyl)-7-ethoxy-2-methyl-2,5-dihydro-4H-pyrazolo[3,4-c][1,8]naphthyridin-4-one] | 100 to 500 | 122 |
| CCOc1ccc2c3c(ncn3C)c(=O)n(-c3ccc(OC(F)F)cc3)c2n1 [Compound 14, 5-(4-(difluoromethoxy)phenyl)-7-ethoxy-1-methyl-1,5-dihydro-4H-imidazo[4,5-c][1,8]naphthyridin-4-one] | < 100 | 46.4 |
| Cn1cnc2c(=O)n(-c3ccc(OC(F)F)cc3)c3nc(C(F)(F)F)ccc3c21 [Compound 15, 5-(4-(difluoromethoxy)phenyl)-1-methyl-7-(trifluoromethyl)-1H-imidazo[4,5-c][1,8]naphthyridin-4(5H)-one] | < 100 | 38.5 |
| O=c1c2ncoc2c2ccc(C(F)(F)F)nc2n1-c1ccc(OC(F)F)cc1 [Compound 16, 5-(4-(difluoromethoxy)phenyl)-7-(trifluoromethyl)oxazolo[4,5-c][1,8]naphthyridin-4(5H)-one] | 100 to 500 | 122 |
| Cn1cnc2c(=O)n(-c3ccc(Cl)cc3)c3nc(C(F)(F)F)ccc3c21 [Compound 19, 5-(4-chlorophenyl)-1-methyl-7-(trifluoromethyl)-1,5-dihydro-4H-imidazo[4,5-c][1,8]naphthyridin-4-one] | < 100 | 51.4 |
| Cn1cnc2c(=O)n(-c3ccccc3)c3nc(C(F)(F)F)ccc3c21 [Compound 21, 1-methyl-5-phenyl-7-(trifluoromethyl)-1,5-dihydro-4H-imidazo[4,5-c][1,8]naphthyridin-4-one] | < 100 | 64.9 |
| Cn1cnc2c(=O)n(-c3cccc(Cl)c3)c3nc(C(F)(F)F)ccc3c21 [Compound 22, 5-(3-chlorophenyl)-1-methyl-7-(trifluoromethyl)-1,5-dihydro-1H-imidazo[4,5-c][1,8]naphthyridin-4-one] | 100 to 500 |  |
| Cn1cnc2c(=O)n(-c3ccccc3F)c3nc(C(F)(F)F)ccc3c21 [Compound 23, 5-(2-fluorophenyl)-1-methyl-7-(trifluoromethyl)-1,5-dihydro-4H-imidazo[4,5-c][1,8]naphthyridin-4-one] | < 100 | 78.8 |

Now from value to compound:

| IC50 (class symbols) [nM] | IC50 (numeric values) [nM] | Structure (SMILES) |
| --- | --- | --- |
| < 100 | 36 | Cn1cnc2c(=O)n(-c3cccnc3C3CC3)c3cc(C(F)(F)F)ccc3c21 (atropisomer, axis not shown) [Compound 48, 5-(2-cyclopropylpyridin-3-yl)-1-methyl-7-(trifluoromethyl)-1,5-dihydro-4H-imidazo[4,5-c]quinolin-4-one] |
| < 100 | 42 | Cn1cnc2c(=O)n(-c3ccccc3C(F)(F)F)c3nc(C(F)(F)F)ccc3c21 (single isomer, unassigned) [Compound 57-P2, 1-methyl-7-(trifluoromethyl)-5-(2-(trifluoromethyl)phenyl)-1,5-dihydro-4H-imidazo[4,5-c][1,8]naphthyridin-4-one] |
| < 100 | 90.8 | Cn1cnc2c(=O)n(-c3ccc(OC(F)F)cc3Cl)c3nc(C(F)(F)F)ccc3c21 (single isomer, unassigned) [Compound 58-P2, 5-(2-chloro-4-(difluoromethoxy)phenyl)-1-methyl-7-(trifluoromethyl)-1,5-dihydro-4H-imidazo[4,5-c][1,8]naphthyridin-4-one] |
| < 100 | 41.4 | CCc1ncccc1-n1c(=O)c2ncn(C)c2c2ccc(C(F)(F)F)nc21 (single isomer, unassigned) [Compound 67-P2, 5-(2-ethylpyridin-3-yl)-1-methyl-7-(trifluoromethyl)-1,5-dihydro-4H-imidazo[4,5-c][1,8]naphthyridin-4-one] |
| < 100 | 32.5 | C#Cc1cccc(-n2c(=O)c3ncn(C)c3c3ccc(C(F)(F)F)nc32)c1Cl (single isomer, unassigned) [Compound 80-P2, 5-(2-chloro-3-ethynylphenyl)-1-methyl-7-(trifluoromethyl)-1,5-dihydro-4H-imidazo[4,5-c][1,8]naphthyridin-4-one] |
| < 100 | 33.6 | O=c1c2ncoc2c2ccc(C(F)(F)F)cc2n1-c1cccnc1C1CC1 (single isomer, unassigned) [Compound 85-P2, 5-(2-cyclopropylpyridin-3-yl)-7-(trifluoromethyl)oxazolo[4,5-c]quinolin-4(5H)-one] |
| < 100 | 25 | O=c1c2ncoc2c2ccc(C(F)(F)F)nc2n1-c1cccnc1C(F)(F)F (single isomer, unassigned) [Compound 86-P2, 7-trifluoromethyl-5-(2-trifluoromethylpyridin-3-yl)oxazolo[4,5-c][1,8]naphthyridin-4(5H)-one] |
| < 100 | 38.7 | O=c1c2ncn(C(F)F)c2c2ccc(Cl)cc2n1-c1cccnc1C1CC1 (single isomer, unassigned) [Compound 87-P2, 7-chloro-5-(2-cyclopropylpyridin-3-yl)-1-difluoromethyl-1,5-dihydro-4H-imidazo[4,5-c]quinolin-4-one] |
| 100 to 500 | 442 | O=c1c2ocnc2c2ccc(C(F)(F)F)nc2n1-c1ccc(OC(F)F)cc1 [Compound 18, 5-(4-(difluoromethoxy)phenyl)-7-(trifluoromethyl)oxazolo[5,4-c][1,8]naphthyridin-4(5H)-one] |
